Consider twelve compounds from patent US11739098B2 (BRISTOL-MYERS SQUIBB COMPANY, priority 2017, dated 2023).

Assay type in all cases: cell-based
For one experiment, the target named is T1, human TLR7 (Homo sapiens, UniProt Q9NYK1).
T1 construct: host or cells: HEK-Blue cells (HEK293-derived reporter line)
T1 sequence (Q9NYK1 27-1049): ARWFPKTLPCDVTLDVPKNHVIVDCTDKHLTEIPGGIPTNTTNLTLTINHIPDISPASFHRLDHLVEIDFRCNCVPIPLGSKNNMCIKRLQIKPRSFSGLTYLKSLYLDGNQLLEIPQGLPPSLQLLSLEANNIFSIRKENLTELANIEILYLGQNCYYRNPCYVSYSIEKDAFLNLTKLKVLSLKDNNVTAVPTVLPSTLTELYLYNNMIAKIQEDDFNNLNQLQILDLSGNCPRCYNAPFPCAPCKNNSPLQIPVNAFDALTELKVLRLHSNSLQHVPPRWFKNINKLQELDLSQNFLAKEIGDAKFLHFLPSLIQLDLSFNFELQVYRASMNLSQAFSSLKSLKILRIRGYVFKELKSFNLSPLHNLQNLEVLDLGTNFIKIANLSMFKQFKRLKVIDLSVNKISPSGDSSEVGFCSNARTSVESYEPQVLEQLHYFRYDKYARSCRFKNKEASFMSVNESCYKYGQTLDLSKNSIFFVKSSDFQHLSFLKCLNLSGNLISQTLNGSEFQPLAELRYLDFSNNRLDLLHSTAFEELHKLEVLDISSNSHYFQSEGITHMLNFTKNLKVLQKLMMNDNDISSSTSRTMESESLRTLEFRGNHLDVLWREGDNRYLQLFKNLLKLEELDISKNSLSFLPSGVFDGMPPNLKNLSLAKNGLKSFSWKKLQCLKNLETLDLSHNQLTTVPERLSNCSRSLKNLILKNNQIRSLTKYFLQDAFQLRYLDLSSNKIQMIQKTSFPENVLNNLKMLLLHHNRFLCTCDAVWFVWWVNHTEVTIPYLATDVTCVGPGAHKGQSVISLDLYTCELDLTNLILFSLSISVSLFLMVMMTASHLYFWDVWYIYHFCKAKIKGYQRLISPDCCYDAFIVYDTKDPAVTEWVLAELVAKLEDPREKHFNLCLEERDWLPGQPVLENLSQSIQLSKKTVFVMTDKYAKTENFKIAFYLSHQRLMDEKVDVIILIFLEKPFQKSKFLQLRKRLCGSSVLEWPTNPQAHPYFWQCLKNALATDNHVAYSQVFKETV
The experiment is described as follows: TLR7 inhibition reporter assay (HEK-Blue cells, SEAP reporter, gardiquimod stimulation). As to conditions: HEK-Blue cells overexpressing human TLR7, SEAP reporter, gardiquimod 7.5 μM. The method in brief:
(§1)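 Percent inhibition of agonist-induced SEAP secretion in HEK-Blue cells after 22 h at 37 °C. Stimuli: 7.5 μM gardiquimod, 15.9 μM R848, 5 nM ODN2006 for TLR7, TLR8 and TLR9, added after 30 min compound exposure over a 0.05 nM–50 μM range.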
(In a reporter assay the amount or activity of a reporter protein is the signal.)

A further experiment has as its target T2, human TLR8 (Homo sapiens, UniProt Q9NR97).
T2 construct: host or cells: HEK-Blue cells (HEK293-derived reporter line)
T2 sequence (Q9NR97 27-1041): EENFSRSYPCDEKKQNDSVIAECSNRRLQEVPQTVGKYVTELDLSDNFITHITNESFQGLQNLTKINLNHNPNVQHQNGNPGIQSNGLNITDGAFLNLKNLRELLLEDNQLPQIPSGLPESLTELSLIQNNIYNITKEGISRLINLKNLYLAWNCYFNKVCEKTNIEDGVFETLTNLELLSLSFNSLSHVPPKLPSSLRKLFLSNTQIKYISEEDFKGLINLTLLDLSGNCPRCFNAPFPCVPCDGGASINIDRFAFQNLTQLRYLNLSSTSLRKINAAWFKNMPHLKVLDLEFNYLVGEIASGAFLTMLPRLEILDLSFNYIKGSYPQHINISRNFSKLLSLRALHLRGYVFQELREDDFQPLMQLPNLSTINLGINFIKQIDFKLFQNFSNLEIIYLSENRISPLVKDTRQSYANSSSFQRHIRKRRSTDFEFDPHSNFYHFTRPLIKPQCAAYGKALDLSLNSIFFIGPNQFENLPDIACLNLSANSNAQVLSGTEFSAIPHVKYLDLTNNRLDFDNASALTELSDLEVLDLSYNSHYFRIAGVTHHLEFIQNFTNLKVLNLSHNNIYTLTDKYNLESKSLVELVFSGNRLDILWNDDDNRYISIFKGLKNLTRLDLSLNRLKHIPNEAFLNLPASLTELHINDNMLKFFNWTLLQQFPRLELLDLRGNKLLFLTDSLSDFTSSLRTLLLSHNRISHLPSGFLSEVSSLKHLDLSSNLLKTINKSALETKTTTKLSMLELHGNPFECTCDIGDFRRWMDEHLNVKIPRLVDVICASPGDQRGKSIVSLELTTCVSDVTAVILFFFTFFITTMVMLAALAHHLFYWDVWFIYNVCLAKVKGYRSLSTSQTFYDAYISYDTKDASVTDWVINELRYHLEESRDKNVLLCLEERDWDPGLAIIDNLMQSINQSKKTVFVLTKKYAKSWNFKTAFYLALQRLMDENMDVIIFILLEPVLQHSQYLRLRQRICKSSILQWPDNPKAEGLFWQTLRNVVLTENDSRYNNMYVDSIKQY
The experiment is described as follows: TLR8 inhibition reporter assay (HEK-Blue cells, SEAP reporter, R848 stimulation). As to conditions: HEK-Blue cells overexpressing human TLR8, SEAP reporter, R848 15.9 μM. The method in brief:
as §1

In a further experiment the target is T3, human TLR9 (Homo sapiens, UniProt Q9NR96).
T3 construct: host or cells: HEK-Blue cells (HEK293-derived reporter line)
T3 sequence (Q9NR96 26-1032): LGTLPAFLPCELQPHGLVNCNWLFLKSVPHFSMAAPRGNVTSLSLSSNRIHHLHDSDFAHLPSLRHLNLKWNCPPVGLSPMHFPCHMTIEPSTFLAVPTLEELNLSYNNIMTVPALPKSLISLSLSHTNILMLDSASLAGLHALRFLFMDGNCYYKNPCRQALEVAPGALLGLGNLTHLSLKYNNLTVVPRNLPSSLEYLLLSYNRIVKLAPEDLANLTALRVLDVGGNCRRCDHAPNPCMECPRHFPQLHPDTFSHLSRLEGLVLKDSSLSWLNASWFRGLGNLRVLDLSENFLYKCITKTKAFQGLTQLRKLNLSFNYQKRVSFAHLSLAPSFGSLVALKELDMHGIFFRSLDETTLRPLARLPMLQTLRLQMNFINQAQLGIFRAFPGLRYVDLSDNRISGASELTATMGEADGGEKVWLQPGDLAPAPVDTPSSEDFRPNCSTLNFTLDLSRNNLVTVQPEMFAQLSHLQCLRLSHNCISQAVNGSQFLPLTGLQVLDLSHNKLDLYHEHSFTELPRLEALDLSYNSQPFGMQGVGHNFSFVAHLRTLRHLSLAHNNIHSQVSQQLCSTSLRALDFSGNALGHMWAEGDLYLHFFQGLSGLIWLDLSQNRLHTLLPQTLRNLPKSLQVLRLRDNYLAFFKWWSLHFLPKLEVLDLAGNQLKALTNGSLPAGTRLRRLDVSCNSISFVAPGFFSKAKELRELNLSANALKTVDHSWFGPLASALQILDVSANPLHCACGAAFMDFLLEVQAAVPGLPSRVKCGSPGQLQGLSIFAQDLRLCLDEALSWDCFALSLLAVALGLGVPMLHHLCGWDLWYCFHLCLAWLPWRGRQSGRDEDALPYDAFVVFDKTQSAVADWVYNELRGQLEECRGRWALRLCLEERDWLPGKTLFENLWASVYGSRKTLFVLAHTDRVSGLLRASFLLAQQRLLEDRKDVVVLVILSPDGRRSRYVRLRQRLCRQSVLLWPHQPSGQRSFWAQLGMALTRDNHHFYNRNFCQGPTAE
As to the kind of experiment: TLR9 inhibition reporter assay (HEK-Blue cells, SEAP reporter, ODN2006 stimulation). As to conditions: HEK-Blue cells overexpressing human TLR9, SEAP reporter, ODN2006 5 nM. The method in brief:
as §1

pIC50: −log10 of the molar value.

Broadly, the pIC50 is −log10 of the IC50, conventionally taken in molar units.

For `Cc1c(-c2ccnc3c2ccn3C)[nH]c2ccc(C3CCN(C4CCN(C(C)C)CC4)CC3)cc12` [Example 844, 4-(5-(1′-isopropyl-[1,4′-bipiperidin]-4-yl)-3-methyl-1H-indol-2-yl)-1-methyl-1H-pyrrolo[2,3-b]pyridine], the pIC50 on human TLR7 was 4.30 to 6.00; against human TLR8, above 7.00; against human TLR9, above 7.00.

On to `Cc1cc(-c2[nH]c3ccc(C4CCN(C(=O)CN(C)C)CC4)cc3c2C(C)C)cc2c1oc(=O)n2C` [Example 489, 5-(5-(1-(dimethylglycyl)piperidin-4-yl)-3-isopropyl-1H-indol-2-yl)-3,7-dimethylbenzo[d]oxazol-2(3H)-one], for which the pIC50 on human TLR7 is above 7.00; against human TLR8 it was 6.00 to 7.00; on human TLR9 it was 4.30 to 6.00.

For `CC(C)c1c(-c2ccnc3[nH]ncc23)[nH]c2ccc(C3CCN(CC(C)(C)CN(C)C)CC3)cc12` [Example 847, 3-(4-(3-isopropyl-2-(1H-pyrazolo[3,4-b]pyridin-4-yl)-1H-indol-5-yl)piperidin-1-yl)-N,N,2,2-tetramethylpropan-1-amine], the values for the pIC50 against human TLR7, on human TLR8 and against human TLR9 were above 7.00, above 7.00 and 6.00 to 7.00, respectively.

Turning to `Cc1cc(-c2[nH]c3ccc(C4CCN(C(=O)CN5CC6(COC6)C5)CC4)cc3c2C(C)C)cn2nnnc12` [Example 471, 1-(4-(3-isopropyl-2-(8-methyltetrazolo[1,5-a]pyridin-6-yl)-1H-indol-5-yl)piperidin-1-yl)-2-(2-oxa-6-azaspiro[3.3]heptan-6-yl)ethan-1-one], the negative-log IC50 (pIC50) against human TLR7 is above 7.00; at human TLR8 it was above 7.00; on human TLR9, 4.30 to 6.00.

Consider `CCc1c(-c2ccnc3[nH]ccc23)[nH]c2ccc(C3CCN(C4CCN(C)CC4)CC3)cc12` [Example 839, 4-(3-ethyl-5-(1′-methyl-[1,4′-bipiperidin]-4-yl)-1H-indol-2-yl)-1H-pyrrolo[2,3-b]pyridine], for which the pIC50 against human TLR7, on human TLR8 and against human TLR9 was above 7.00 in each case.

Regarding `Cc1cn2cc(-c3[nH]c4ccc(C5CCN(C(=O)CN(C)C)CC5)cc4c3C(C)C)cc(C)c2n1` [Example 509, 2-(dimethylamino)-1-(4-(2-(2,8-dimethylimidazo[1,2-a]pyridin-6-yl)-3-isopropyl-1H-indol-5-yl)piperidin-1-yl)ethan-1-one], the pIC50 at human TLR7 was above 7.00; at human TLR8, above 7.00; at human TLR9, 6.00 to 7.00.

Take `CNC(=O)CN1CCC(c2ccc3[nH]c(-c4cc(C)c5oc(=O)[nH]c5c4)c(C(C)C)c3c2)CC1` [Example 337, 2-(4-(3-isopropyl-2-(7-methyl-2-oxo-2,3-dihydrobenzo[d]oxazol-5-yl)-1H-indol-5-yl)piperidin-1-yl)-N-methylacetamide]: the pIC50 is 6.00 to 7.00 on human TLR7, 6.00 to 7.00 against human TLR8 and 4.30 to 6.00 on human TLR9.

As for `Cc1cc2nccn2cc1-c1[nH]c2ccc(C3CCN(CC(=O)N(C)C)CC3)cc2c1C(C)C` [Example 431, 2-(4-(3-isopropyl-2-(7-methylimidazo[1,2-a]pyridin-6-yl)-1H-indol-5-yl)piperidin-1-yl)-N,N-dimethylacetamide], the pIC50 against human TLR7 is above 7.00; on human TLR8 it was 6.00 to 7.00; on human TLR9, 4.30 to 6.00.

`CC(C)c1c(-c2ccn3nncc3c2)[nH]c2ccc(C3CCN(CC(=O)N(C)C)CC3)cc12` [Example 302, 2-(4-(2-([1,2,3]triazolo[1,5-a]pyridin-5-yl)-3-isopropyl-1H-indol-5-yl)piperidin-1-yl)-N,N-dimethylacetamide]: the negative-log IC50 (pIC50) against human TLR7 was above 7.00; against human TLR8 it was 6.00 to 7.00; against human TLR9, 4.30 to 6.00.

As for `CC(C)c1c(-c2c[nH]c3ccncc23)[nH]c2ccc(C3CCNCC3)cc12` [Example 14, 3-(3-isopropyl-5-(piperidin-4-yl)-1H-indol-2-yl)-1H-pyrrolo[3,2-c]pyridine], the pIC50 against human TLR7 is below 5.51; against human TLR8, below 5.51; against human TLR9, 6.00 to 7.00.

On to `Cc1nc2cc(-c3[nH]c4ccc(C5CCN(C(=O)CN(C)C)CC5)cc4c3C(C)C)ccn2n1` [Example 538, 2-(dimethylamino)-1-(4-(3-isopropyl-2-(2-methyl-[1,2,4]triazolo[1,5-a]pyridin-7-yl)-1H-indol-5-yl)piperidin-1-yl)ethan-1-one], for which the pIC50 against human TLR7 is above 7.00; against human TLR8, 6.00 to 7.00; against human TLR9, 4.30 to 6.00.

On to `CCc1c(-c2ccnc3[nH]ccc23)[nH]c2ccc(C3CCN(C4CC(C)(C)NC(C)(C)C4)CC3)cc12` [Example 838, 4-(3-ethyl-5-(2′,2′,6′,6′-tetramethyl-[1,4′-bipiperidin]-4-yl)-1H-indol-2-yl)-1H-pyrrolo[2,3-b]pyridine], for which the pIC50 on human TLR7 is above 7.00; against human TLR8 it was above 7.00; against human TLR9 it was 6.00 to 7.00.
